Measurements published in publication PMC7729925, “Selective hepatitis B and D virus entry inhibitors from the group of pentacyclic lupane-type betulin-derived triterpenoids” (Scientific Reports, 2020).
Where “and” joins values, the source holds several entries; their conditions need not be identical. Equal entries are not always repeated. Where two headings read alike, the source gives them in different places.

Legend:
[1] = target: T1, NTCP (Homo sapiens, UniProt Q14973); test: [3H]TC transport (bile acid uptake) inhibition in NTCP-HEK293 cells; format: cell-based; conditions: for [3H]TC transport inhibition (in words): 0.1–1,000 µM
T1 construct: expressed in transfected cells
T1 sequence (Q14973 1-349): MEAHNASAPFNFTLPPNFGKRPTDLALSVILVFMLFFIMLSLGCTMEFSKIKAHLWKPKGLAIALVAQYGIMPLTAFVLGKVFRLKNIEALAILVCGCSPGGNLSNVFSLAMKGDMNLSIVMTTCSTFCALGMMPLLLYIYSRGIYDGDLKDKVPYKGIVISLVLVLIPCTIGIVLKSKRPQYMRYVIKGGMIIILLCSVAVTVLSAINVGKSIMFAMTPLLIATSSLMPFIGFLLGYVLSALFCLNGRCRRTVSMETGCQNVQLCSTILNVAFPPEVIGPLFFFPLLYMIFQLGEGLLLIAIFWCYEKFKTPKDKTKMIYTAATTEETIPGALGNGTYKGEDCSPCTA
Experimental: (§1) The major goal of the present study was to analyze in parallel the effect of inhibitors on both, bile acid transport via NTCP and myr-preS1_2-48 lipopeptide binding to NTCP in a cell culture system. […] NTCP-HEK293 cells were seeded onto 96-well plates and were incubated with tetracycline in order to induce expression of the human NTCP protein. […] Experiments were performed with solvent alone (set to 100%) and with increasing concentrations of the indicated inhibitors. […] Half maximal inhibitory concentrations (IC50) were calculated by nonlinear regression analysis using the equation log(inhibitor) versus response (GraphPad Prism). […] Data represent means ± SD of quadruplicate determinations of representative experiments. […] In parallel, [^3H]preS1 peptide binding experiments were performed with a tritium-labelled myr-preS1_2-48 lipopeptide -HBV subgenotype D3- that was purchased from Pharmaron (120 Ci/mmol, 1 mCi/ml, Cardiff, UK). […] Experiments were stopped after 10 min by two-times washing with ice-cold PBS. For 0% uptake/binding control, the NTCP-HEK293 cells were not induced with tetracycline (-tet). […] Transport rates and [^3H]preS1 binding were determined in counts per minute (cpm). […] IC50 values were calculated from quadruplicate determinations by GraphPad Prism 6 (GraphPad, San Diego, CA, USA).

[2] = target: T1, NTCP; test: [3H]preS1 (myr-preS1_2-48 lipopeptide) binding inhibition in NTCP-HEK293 cells; conditions: for IC50: NTCP-HEK293 cells; for Selectivity index: ratio of mean IC50 [3H]TC transport inhibition / IC50 [3H]preS1 binding inhibition
Experimental: as §1

[3] = tested on: HBV; set-up: method as in earlier work; conditions: ref 25 (Shimura et al.); read-out: IC50 in vitro HBV infection; cited from earlier work
[4] = target: T1, NTCP; set-up: method as in earlier work; conditions: ref 25 (Shimura et al.); read-out: IC50 bile acid transport inhibition; cited from earlier work
[5] = 95% confidence interval, inhibition of 1 µM [3H]TC uptake, NTCP-HEK293 cells, 10 min, 37 °C, read-out: IC50 ([3H]TC uptake)
[6] = 95% confidence interval, inhibition of 5 nM [3H]preS1 binding, 10 min, 37 °C, read-out: IC50 ([3H]preS1 binding)
[7] = mean IC50, […] µM [3H]TC, NTCP-HEK293 cells, standard pH 7.4, read-out: IC50 [3H]TC transport inhibition
[8] = mean IC50, 5 nM [3H]preS1, standard pH 7.4, read-out: IC50 [3H]preS1 binding inhibition

Compound `C=C(C)[C@@H]1CC[C@]2(COC3CCCCO3)CC[C@]3(C)[C@H](CC[C@@H]4[C@@]5(C)CC[C@H](OC(C)=O)C(C)(C)[C@@H]5CC[C@]43C)[C@@H]12` (stereo partly drawn) [Compound 23, 3-O-Acetyl-28-(tetrahydro-2H-pyran-2-yl)betulin] has an IC50 [1, 5] of 119 to 947 µM, an IC50 [2, 6] of 11 to 114 µM and a Selectivity index [2] of 10.

For `C=C(C)C1CCC2(COC(C)=O)CCC3(C)C(CCC4C5(C)CCC(OC(C)=O)C(C)(C)C5CCC43C)C12` (stereo not drawn) [Compound 24, 3,28-Di-O-acetylbetulin], the “[3H]TC transport inhibition (in words)” value ([1]; NTCP-HEK293 cells) was “no transport inhibition at all”, the IC50 [1, 5] was over 1000 µM and the IC50 [1, 7] was over 1000 µM. For the same compound, the IC50 [2, 6] was 52.6 to 756 µM, the IC50 [2, 8] was 199 µM and the Selectivity index [2] was over 5.

For `C=C(CO)C1CCC2(COC(C)=O)CCC3(C)C(CCC4C5(C)CCC(OC(C)=O)C(C)(C)C5CCC43C)C12` (stereo not drawn) [Compound 25, 3,28-Di-O-acetyl-29-hydroxybetulin], the “[3H]TC transport inhibition (in words)” value ([1]; NTCP-HEK293 cells) was “no transport inhibition at all”, the IC50 [1, 5] was over 1000 µM and the IC50 [1, 7] was over 1000 µM. For the same compound, the IC50 [2, 6] was 5.29 to 13 µM and the IC50 [2, 8] was < 10 µM and 8 µM.

Work on `CC(=O)OC[C@]12CC[C@@H](C3(C)CO3)[C@@H]1[C@H]1CC[C@@H]3[C@@]4(C)CC[C@H](OC(C)=O)C(C)(C)[C@@H]4CC[C@@]3(C)[C@]1(C)CC2` (stereo partly drawn) [Compound 26, 3,28-Di-O-acetyl-20,30-epoxybetulin] yielded an IC50 [1, 5] of 332 to 891 µM, an IC50 [2, 6] of 26.5 to 73 µM and a Selectivity index [2] of 12.

For `C=C(C)C1CCC2(CO)CCC3(C)C(CCC4C5(C)CCC(OC(=O)C=Cc6ccc(O)c(O)c6)C(C)(C)C5CCC43C)C12` (stereo not drawn) [Compound 27, 3-O-Caffeoylbetulin], the IC50 [1, 5] was 85 to 195 µM, the IC50 [2, 6] was 3.35 to 10 µM and the IC50 [2, 8] was 6 µM. The Selectivity index [2] was 22.

With `CC(=O)OC[C@]12CCC(C(C)C)=C1[C@H]1CC[C@@H]3[C@@]4(C)CC[C@H](OC(C)=O)C(C)(C)[C@@H]4CC[C@@]3(C)[C@]1(C)CC2` [Compound 28, 3,28-Di-O-acetyl-18,19-dehydro-20,29-dihydrobetulin] the “[3H]TC transport inhibition (in words)” value ([1]; NTCP-HEK293 cells) was “no transport inhibition at all”, the IC50 [1, 5] was over 1000 µM and the IC50 [1, 7] was over 1000 µM. It also gave an IC50 [2, 6] of 30 to 133 µM and a Selectivity index [2] of over 16.

For `CC1(C)CC[C@]23CC[C@]4(C)[C@H](CC[C@@H]5[C@@]6(C)CC[C@H](O)C(C)(C)[C@@H]6CC[C@]54C)[C@H]2[C@H]1OC3` [Compound 29, Allobetulin], the IC50 ([1]; read-out: IC50 ([3H]TC uptake)) was 212 to 675 µM and the IC50 ([2]; IC50 ([3H]preS1 binding), 95% confidence interval, inhibition of 5 nM [3H]preS1 binding, 10 min, 37 °C) was 9.67 to 20.8 µM.

In the case of `CC=CCC(C)C(O)C1C(=O)NC(CC)C(=O)N(C)C(OCCOC)C(=O)N(C)C(CC(C)(C)O)C(=O)NC(C(C)C)C(=O)N(C)C(CC(C)C)C(=O)NC(C)C(=O)NC(C)C(=O)N(C)C(CC(C)C)C(=O)N(C)C(CC(C)C)C(=O)N(C)C(C(C)C)C(=O)N1C` (stereo not drawn) [SCY995], the IC50 [3] is listed as under 8 µM and the IC50 [4] is listed as over 25 µM.
